Where “and” joins values, the source holds several entries; their conditions need not be identical. Equal entries are not always repeated.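 Protocol summary: plate cells (96-well), add compound at 5 concentrations, incubate 48 h, interpolate endpoints linearly. GI50 = concentration required for 50% inhibition of growth. TGI: concentration producing complete growth inhibition.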
What was measured:
Assay in all cases: DTP human tumour cell line panel, 48 h
HOP-62 NSCLC = system: HOP-62 NSCLC
IGROV1 ovarian = system: IGROV1 ovarian
NCI-H23 lung = system: NCI-H23 lung
SNB-19 CNS = system: SNB-19 CNS
SW-620 colon = system: SW-620 colon
A498 renal = system: A498 renal
KM12 colon = system: KM12 colon
OVCAR-5 ovarian = system: OVCAR-5 ovarian
SK-MEL-2 melanoma = system: SK-MEL-2 melanoma
CAKI-1 renal = system: CAKI-1 renal

SMILES	GI50 (HOP-62 NSCLC)	TGI (HOP-62 NSCLC) [nM]	GI50 (IGROV1 ovarian)	TGI (IGROV1 ovarian) [nM]	GI50 (NCI-H23 lung)	TGI (NCI-H23 lung) [nM]	GI50 (SNB-19 CNS)	TGI (SNB-19 CNS) [nM]	GI50 (SW-620 colon)	TGI (SW-620 colon) [nM]	GI50 (A498 renal)	TGI (A498 renal) [nM]	GI50 (KM12 colon)	TGI (KM12 colon) [nM]	GI50 (OVCAR-5 ovarian) [nM]	TGI (OVCAR-5 ovarian) [nM]	GI50 (SK-MEL-2 melanoma) [nM]	TGI (SK-MEL-2 melanoma) [nM]	TGI (CAKI-1 renal) [nM]	GI50 (CAKI-1 renal) [nM]
CCOC(=O)c1cc(C(=O)c2ccc(OC)cc2)n2ccc(/C=C/c3cc[n+](CC(=O)c4ccc(OC)cc4)cc3)cc12	3400 nM	36800	1740 nM	4460	2220 nM	5500	1730 nM	4060	1720 nM	4020	–	–	–	–	–	–	–	–	–	–
CC[C@H](C)[C@H](NC(=O)[C@H]1CCCCN1C)C(=O)N(C)[C@H](C[C@@H](OC(C)=O)c1cccc(C(=O)N[C@@H](Cc2ccccc2)C[C@H](C)C(=O)OC)n1)C(C)C	6.5 nM and 4.27 nM	> 25000	0.812 nM and 5.06 nM	> 25000	4.43 nM and 5.21 nM	> 25000	4.61 nM and 2.5 nM	> 25000	3.17 nM and 2.5 nM	> 25000	4.45 nM and 2.5 nM	16.6	1.88 nM and 2.5 nM	> 25000	13.7	> 25000	2.5	10300	–	–
CCOC(=O)Cc1c(C)c2cc(C(=O)c3ccccc3)c(O)cc2oc1=O	–	> 100000	–	> 100000	–	46600	–	> 100000	–	> 100000	–	80200	–	–	–	> 100000	–	40200	> 100000	–
CC1Cc2c(Cl)ncnc2N(C)c2ccc(Cl)cc21 (configuration not stated)	339 nM	11100	468 nM	> 100000	316 nM	2200	636 nM	> 100000	335 nM	4740	240 nM	547	–	–	592	> 100000	280	836	> 100000	348
COc1cc(/C=C2\C(=O)N(C(=O)Cc3ccccc3)N=C2C)cc(OC)c1OC	–	> 100000	–	–	–	> 100000	–	> 100000	–	> 100000	–	–	–	> 100000	–	> 100000	–	> 100000	> 100000	–
COC1CCC(OS(C)(=O)=O)C(CO)O1 (configuration not stated)	–	> 100000	–	> 100000	–	> 100000	–	–	–	> 100000	–	–	–	> 100000	–	> 100000	–	> 100000	–	–
OCC1C(OCc2ccccc2)C(OCc2ccccc2)C(OCc2ccccc2)CN1Cc1ccccc1 (configuration not stated)	–	> 100000	–	> 100000	–	53300	–	> 100000	–	> 100000	–	–	–	> 100000	–	> 100000	–	–	> 100000	–
Clc1c(Cl)[n+](Cc2ccc3ccccc3c2)cn1Cc1ccc2ccccc2c1	1260 nM	2610	1330 nM	2930	1350 nM	3150	1320 nM	2700	1470 nM	3000	1230 nM	2920	1530 nM	3050	1540	3320	1670	3240	–	–
NC(=O)NNC(=O)CCn1[nH]c(=O)c(Cl)c(Cl)c1=O	–	> 100000	–	> 100000	–	> 100000	–	> 100000	–	> 100000	–	> 100000	–	–	–	> 100000	–	> 100000	> 100000	–
C/C(=N\N=C(N)N)C(CN1CCCCC1)C(c1ccccc1)c1c(O)c2ccccc2oc1=O (configuration not stated)	–	> 100000	–	> 100000	–	> 100000	–	> 100000	–	> 100000	–	> 100000	–	–	–	> 100000	–	> 100000	> 100000	–
Cc1cnc2ccc(C)c([N+](=O)[O-])c2c1NCCCN(C)C	–	> 100000	–	–	–	> 100000	–	> 100000	–	> 100000	–	–	–	> 100000	–	> 100000	–	> 100000	> 100000	–
O=c1c2ccccc2sc2c(NCCCNCCO)nc3ccccc3c12	1340 nM	2820	1350 nM	3170	2010 nM	7550	2020 nM	5130	1310 nM	2740	–	–	1770 nM	3480	1560	3310	1870	3620	3200	1600
COc1cc(C2C(Cl)C(=O)N2NC(=O)Cc2ccccc2)cc(Br)c1O (configuration not stated)	–	> 100000	–	> 100000	–	> 100000	–	> 100000	–	> 100000	–	–	–	> 100000	–	> 100000	–	> 100000	> 100000	–
COc1ccc(C2(Cl)c3ccccc3N(c3ccccc3)c3ccccc32)cc1	411 nM	2760	770 nM	10300	329 nM	1810	637 nM	2430	370 nM	1690	–	–	1180 nM	5540	2190	7640	377	1850	12500	1680

Source: PubChem BioAssay (NCI)
